From paper PMC8760323, “Single-chain tandem macrocyclic peptides as a scaffold for growth factor and cytokine mimetics” (Communications Biology, 2022)

Key:
HEL cells [1] = test: Phospho-CREB ELISA; type: cell-based, human
Protocol: Here, 100,000 HEL cells were seeded on a 96-well cell culture plate in RPMI 1640 medium and incubated overnight for starvation. The starved cells were stimulated by rhTPO or TMP-PA8 for 20 min, rinsed once with PBS, and lysed with lysis buffer 17 supplemented with a protease inhibitor cocktail. The phosphorylation level of CREB was assessed using phospho-CREB (Ser133) and the Total CREB ELISA kit (RayBio) according to the manufacturer’s instructions. The amounts of phospho-CREB and total CREB were quantified by measuring absorbance at 450 nm, and the phospho-CREB level was calculated as (absorbance of pCREB)/(absorbance of total CREB).

HEL cells [2] = test: Phosphokinase array (TPO signal cascade); type: cell-based, human; conditions: 5.4 nM rhTPO or 1:1000 diluted TMP-PA8 supernatant, 20 min
Protocol: The TPO signal cascade was analyzed using the Proteome Profiler Human Phosphokinase Array Kit (R&D Systems). Briefly, 1 × 10^6 HEL cells in a 6-well cell culture dish were starved in RPMI 1640 medium for 24 h. The starved cells were stimulated by 5.4 nM rhTPO or 1:1000 diluted TMP-PA8 containing a C. glutamicum supernatant for 20 min, rinsed once with PBS, and lysed with 200 μL of lysis buffer 17 supplemented with a protease inhibitor cocktail. Lysates were analyzed using the Proteome Profiler Human Phosphokinase Array Kit (R&D Systems) according to the manufacturer’s instructions. Chemiluminescence was detected using Amersham Imager 600 (Cytiva).

## rhTPO: recombinant human TPO (Peprotech)
HEL cells [1]; 7.375 pM, replicate 1
  Normazlied pCREB/CREB: 1.252
HEL cells [1]; 7.375 pM, replicate 2
  Normazlied pCREB/CREB: 0.9311
HEL cells [1]; 7.375 pM, replicate 3
  Normazlied pCREB/CREB: 0.9649
HEL cells [1]; 22.12 pM, replicate 1
  Normazlied pCREB/CREB: 1.113
HEL cells [1]; 22.12 pM, replicate 2
  Normazlied pCREB/CREB: 1.1408
HEL cells [1]; 22.12 pM, replicate 3
  Normazlied pCREB/CREB: 1.274
HEL cells [1]; 66.37 pM, replicate 1
  Normazlied pCREB/CREB: 1.03
HEL cells [1]; 66.37 pM, replicate 2
  Normazlied pCREB/CREB: 1.312
HEL cells [1]; 66.37 pM, replicate 3
  Normazlied pCREB/CREB: 1.353
HEL cells [1]; 199.1 pM, replicate 1
  Normazlied pCREB/CREB: 1.208
HEL cells [1]; 199.1 pM, replicate 2
  Normazlied pCREB/CREB: 1.421
HEL cells [1]; 199.1 pM, replicate 3
  Normazlied pCREB/CREB: 1.637
HEL cells [1]; 597.4 pM, replicate 1
  Normazlied pCREB/CREB: 1.281
HEL cells [1]; 597.4 pM, replicate 2
  Normazlied pCREB/CREB: 1.5026
HEL cells [1]; 597.4 pM, replicate 3
  Normazlied pCREB/CREB: 1.479
HEL cells [1]; 1.79211e-9 M, replicate 1
  Normazlied pCREB/CREB: 1.452
HEL cells [1]; 1.79211e-9 M, replicate 2
  Normazlied pCREB/CREB: 1.237
HEL cells [1]; 1.79211e-9 M, replicate 3
  Normazlied pCREB/CREB: 1.5195
HEL cells [1]; 5.37634e-9 M, replicate 1
  Normazlied pCREB/CREB: 1.523
HEL cells [1]; 5.37634e-9 M, replicate 2
  Normazlied pCREB/CREB: 0.9969
HEL cells [1]; 5.37634e-9 M, replicate 3
  Normazlied pCREB/CREB: 1.102
HEL cells [1]; at concentrations of 0.1-1 nM
  promotion of CREB phosphorylation: 1.5 fold
HEL cells [2]
  phosphorylation of STAT3, STAT5, Erk1/2 and CREB compared with unstimulated cells: enhanced
